Measurements as given in US20070197522A1, “Dpp-iv inhibitors” (priority 2004, published 2007).
pIC50: −log10 of the molar value. Where a name gives a salt, the structure may show the parent alone. Read-outs that look alike come from different tables or passages of the source.

Biological target: T1, DPP-IV (Homo sapiens, UniProt P27487)
T1 construct: Soluble human DPP-IV lacking the transmembrane anchor (Gly31-Pro766) was expressed in a recombinant YEAST-strain; Pre-Pro-alpha-mating factor leader (secretion fusion) (N, cleaved yes); made in house
Test: Inhibition of DPP-IV peptidase activity, continuous fluorimetric assay (Gly-Pro-AMC cleavage)
Assay type: biochemical, human and porcine
Method: Inhibition of DPP-IV peptidase activity was monitored with a continuous fluorimetric assay. This assay is based on the cleavage of the substrate Gly-Pro-AMC (Bachem) by DPP-IV, releasing free AMC. The assay is carried out in 96-well microtiterplates. In a total volume of 100 μL, compounds are preincubated with 50 pM DPP-IV employing a buffer containing 10 mM Hepes, 150 mM NaCl, 0.005% Tween 20 (pH 7.4). […] The final concentration of DMSO is 1%. The inhibitory potential of the compounds were determined.
Soluble human DPP-IV lacking the transmembrane anchor (Gly31-Pro766) was expressed in a recombinant YEAST-strain as Pre-Pro-alpha-mating fusion. The secreted product (rhuDPP-IV-Gly31-Pro766) was purified from fermentation broth (>90% purity).

[1] = inhibition of DPP-IV peptidase activity, 50 pM DPP-IV, 16 μM Gly-Pro-AMC, pH 7.4, 25° C., values grouped in 3 classes, read-out: IC50

T1 sequence (P27487 31-766): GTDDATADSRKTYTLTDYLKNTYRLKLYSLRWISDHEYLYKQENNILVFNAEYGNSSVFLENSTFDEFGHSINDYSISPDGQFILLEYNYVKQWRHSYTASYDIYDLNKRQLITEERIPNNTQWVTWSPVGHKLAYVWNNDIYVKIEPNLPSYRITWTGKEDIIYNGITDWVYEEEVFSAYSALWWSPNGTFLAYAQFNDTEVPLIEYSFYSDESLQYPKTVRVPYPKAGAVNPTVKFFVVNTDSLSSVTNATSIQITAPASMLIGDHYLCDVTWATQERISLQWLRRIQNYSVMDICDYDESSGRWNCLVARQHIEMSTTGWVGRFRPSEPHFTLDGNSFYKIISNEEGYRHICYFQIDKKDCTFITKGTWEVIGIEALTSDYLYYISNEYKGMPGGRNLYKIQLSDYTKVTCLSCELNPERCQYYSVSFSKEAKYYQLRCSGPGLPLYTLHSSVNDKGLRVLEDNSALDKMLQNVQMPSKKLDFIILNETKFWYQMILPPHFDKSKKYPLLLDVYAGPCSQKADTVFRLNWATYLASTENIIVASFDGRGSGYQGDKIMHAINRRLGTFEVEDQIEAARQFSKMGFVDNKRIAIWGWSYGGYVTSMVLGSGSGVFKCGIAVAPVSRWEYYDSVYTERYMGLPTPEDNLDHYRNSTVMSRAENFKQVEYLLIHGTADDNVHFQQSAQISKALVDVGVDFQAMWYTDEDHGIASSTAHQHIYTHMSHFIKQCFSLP

SMILES	pIC50 [1]	further results
N[C@@H](CC(=O)NCc1ccccc1)Cc1ccccc1F [Example 41]	5.70 to 6.00	–
N[C@@H](CC(=O)NCCNC(=O)c1ccccn1)Cc1ccccc1F [Example 148]	6.00 to 7.00	–
N[C@@H](CC(=O)NC(Cc1ccccc1)c1ccccc1)Cc1ccccc1F (single isomer, unassigned) [Example 74]	6.00 to 7.00	–
N[C@@H](CC(=O)NCc1cc(F)c(F)c(F)c1)Cc1ccccc1F [Example 65]	6.00 to 7.00	–
CN(CC(c1ccccc1)N1CCOCC1)C(=O)C[C@H](N)Cc1ccccc1F (some centres unmarked) [Example 177]	> 7.00	–
N[C@@H](CC(=O)NCc1cccc2ncccc12)Cc1ccccc1F [Example 138]	6.00 to 7.00	–
N[C@@H](CC(=O)NCc1ccccc1-c1ccccc1)Cc1ccccc1F [Example 75]	6.00 to 7.00	–
N[C@@H](CC(=O)NCC(c1ccccc1Cl)N1CCCC1)Cc1ccccc1F (single isomer, unassigned) [Example 132]	6.00 to 7.00	–
N[C@@H](CC(=O)NC(c1ccccc1)c1ccccc1)Cc1ccccc1F [Example 47]	6.00 to 7.00	–
N[C@@H](CC(=O)NCC(c1cccc(Cl)c1)N1CCOCC1)Cc1ccccc1F (some centres unmarked) [Example 157]	6.00 to 7.00	–
N[C@@H](CC(=O)NC(CN1CCCC1)c1ccccc1Cl)Cc1ccccc1F (single isomer, unassigned) [Example 90]	> 7.00	–
COc1cccc(CCNC(=O)C[C@H](N)Cc2ccccc2F)c1 [Example 81]	5.70 to 6.00	–
CC(C)c1ccc(CNC(=O)C[C@H](N)Cc2ccccc2F)cc1 [Example 73]	6.00 to 7.00	–
COc1ccc(-c2cc(CNC(=O)C[C@H](N)Cc3ccccc3F)on2)cc1 [Example 57]	6.00 to 7.00	–
N[C@@H](CC(=O)NCCc1ccc(Cl)c(Cl)c1)Cc1ccccc1F [Example 92]	6.00 to 7.00	–
N[C@@H](CC(=O)NCc1cccc2cnccc12)Cc1ccccc1F [Example 116]	5.70 to 6.00	–
CN(Cc1cccnc1)C(=O)C[C@H](N)Cc1ccccc1F [Example 122]	6.00 to 7.00	–
COc1ccc(CN(C)C(=O)C[C@H](N)Cc2ccccc2F)cc1 [Example 126]	6.00 to 7.00	–
N[C@@H](CC(=O)NCc1ccccn1)Cc1ccccc1F [Example 52]	6.00 to 7.00	–

SMILES	pIC50 [1]	further results
CN(C(=O)C[C@H](N)Cc1ccccc1F)[C@@H](CN1CCCC1)c1ccccc1 [Example 179, (R)-3-Amino-4-(2-fluoro-phenyl)-N-methyl-N-(1-phenyl-2-pyrrolidin-1-yl-ethyl)-butyramide Formic Acid]	–	pIC50 (IC50, inhibition of DPP-IV peptidase activity, 50 pM DPP-IV, 16 μM Gly-Pro-AMC, pH 7.4, 25° C., values grouped in 3 classes): 6.00 to 7.00
Cc1noc(C)c1CCNC(=O)C[C@H](N)Cc1ccccc1F [Example 80]	6.00 to 7.00	–
CN(Cc1cccc(C(F)(F)F)c1)C(=O)C[C@H](N)Cc1ccccc1F [Example 124]	6.00 to 7.00	–
N[C@@H](CC(=O)NCc1cccc(C(=O)NC2CC2)c1)Cc1ccccc1F [Example 32, 3-{[(3R)-3-Amino-4-(2-fluoro-phenyl)-butyrylamino]-methyl}-N-cyclopropyl-benzamide. Trifluoroacetate Salt]	6.00 to 7.00	–
CN1CCN(CC(NC(=O)C[C@H](N)Cc2ccccc2F)c2ccccc2)CC1 (some centres unmarked) [Example 159]	6.00 to 7.00	–
CN(Cc1ccccc1Cl)C(=O)C[C@H](N)Cc1ccccc1F [Example 123]	6.00 to 7.00	–
N[C@@H](CC(=O)NCCc1cccc(Cl)c1)Cc1ccccc1F [Example 112]	6.00 to 7.00	–
N[C@@H](CC(=O)NCc1c(Cl)cccc1Oc1ccccc1)Cc1ccccc1F [Example 71]	6.00 to 7.00	–
N[C@@H](CC(=O)NCc1ccc(C(F)(F)F)cc1)Cc1ccccc1F [Example 68]	6.00 to 7.00	–
COc1cccc(C(C)NC(=O)CC(N)Cc2ccccc2F)c1 (centres unmarked) [Example 102]	5.70 to 6.00	–
CN1CCN(c2ccc(CNC(=O)C[C@H](N)Cc3ccccc3F)cc2)CC1 [Example 127]	6.00 to 7.00	–
N[C@@H](CC(=O)NCC(c1cccc(Cl)c1)N1CCCC1)Cc1ccccc1F (some centres unmarked) [Example 172]	6.00 to 7.00	–
N[C@@H](CC(=O)NCCN1CCCCC1)Cc1ccccc1F [Example 82]	6.00 to 7.00	–
CSc1ccccc1CN(C)C(=O)C[C@H](N)Cc1ccccc1F [Example 38, 3-Amino-4-(2-fluoro-phenyl)-N-methyl-N-(2-methylsulfanyl-benzyl)-butyramide Hydrochloride]	6.00 to 7.00	–
N[C@@H](CC(=O)NCc1ccc(Cl)cc1)Cc1ccccc1F [Example 54]	6.00 to 7.00	–
CC(C)[C@H](NC(=O)C[C@H](N)Cc1cc(F)c(F)cc1F)c1nc(C2CC2)no1 [Example 29, (R)-3-Amino-N—[(S)-1-(3-cyclopropyl-[1,2,4]oxadiazol-5-yl)-2-methyl-propyl]-4-(2,4,5-trifluoro-phenyl)-butyramide. Formic Acid Salt]	> 7.00	–
C[C@@H](CNC(=O)C[C@H](N)Cc1ccccc1F)c1ccccc1 [Example 94]	6.00 to 7.00	–
CN(Cc1cccc(C(F)(F)F)c1)S(=O)(=O)C[C@H](N)Cc1ccccc1F [Example 193, (R)-2-Amino-3-(2-fluoro-phenyl)-propane-1-sulphonic acid methyl-(3-trifluoromethyl-benzyl)-amide]	6.00 to 7.00	–
NC(CC(=O)NC1CCCc2ccccc21)Cc1ccccc1F (centres unmarked) [Example 45]	6.00 to 7.00	–

SMILES	pIC50 [1]	further results
N[C@@H](CC(=O)NCCc1ccccc1Cl)Cc1ccccc1F [Example 96]	6.00 to 7.00	–
N[C@@H](CC(=O)NCc1n[nH]c2ccc(Cl)cc12)Cc1ccccc1F [Example 161]	–	pIC50 (IC50): 6.00 to 7.00
N[C@@H](CC(=O)NCC(c1ccccc1)N1CCCC1)Cc1ccccc1F (single isomer, unassigned) [Example 131]	6.00 to 7.00	–
N[C@@H](CC(=O)NCc1cccnc1)Cc1ccccc1F [Example 58]	6.00 to 7.00	–
Cc1ccc(CNC(=O)C[C@H](N)Cc2ccccc2F)cc1 [Example 115]	6.00 to 7.00	–
N[C@@H](CC(=O)NCc1ccc(Cl)cc1Cl)Cc1ccccc1F [Example 44]	6.00 to 7.00	–
N[C@@H](CC(=O)NCc1ccc(-n2cccn2)cc1)Cc1ccccc1F [Example 63]	> 7.00	–
N[C@@H](CC(=O)NCCc1ccccc1)Cc1ccccc1F [Example 50]	6.00 to 7.00	–
CN(C(=O)C[C@H](N)Cc1ccccc1F)C(c1ccccc1)c1ccccc1 [Example 105]	6.00 to 7.00	–
CN(C)C(CNC(=O)C[C@H](N)Cc1ccccc1F)c1ccccc1 (single isomer, unassigned) [Example 85]	6.00 to 7.00	–
N[C@@H](CC(=O)N(CCN1CCOCC1)Cc1cccnc1)Cc1ccccc1F [Example 155]	6.00 to 7.00	–
CN(C)C(CNC(=O)C[C@H](N)Cc1ccccc1F)c1ccccc1Cl (single isomer, unassigned) [Example 84]	6.00 to 7.00	–
COc1ccc(CCNC(=O)C[C@H](N)Cc2ccccc2F)cc1 [Example 98]	5.70 to 6.00	–
N[C@@H](CC(=O)NCc1cccc(-n2cccn2)c1)Cc1ccccc1F [Example 171]	6.00 to 7.00	–
Cc1ccccc1CN(C)C(=O)C[C@H](N)Cc1ccccc1F [Example 37, 3-Amino-4-(2-fluoro-phenyl)-N-methyl-N-(2-methyl-benzyl)-butyramide Hydrochloride]	6.00 to 7.00	–
CN(C)CCNC(=O)C[C@H](N)Cc1ccccc1F [Example 39]	6.00 to 7.00	–
NC(CC(=O)NC(CN1CCCC1)c1ccccc1)Cc1ccccc1F (single isomer, unassigned) [Example 135]	> 7.00	–
N[C@@H](CC(=O)NC(CN1CCOCC1)c1ccccc1)Cc1ccccc1F (single isomer, unassigned) [Example 86]	6.00 to 7.00	–
